In one assay the target is Cytochrome P450 2C9 (Homo sapiens, UniProt P11712).
A further assay deals with Cytochrome P450 3A4 (Homo sapiens, UniProt P08684).
The nature of assay [1]: NIH3T3 cell viability loss – ATP luminescence, mouse fibroblasts, counter-screen, dose response (AID 2010).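 Also: cells exposed to compound for about 90 hours before reading.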 The class given is functional, cell-based.
Assay [2] in a line: Trypanosoma cruzi growth suppression in host cells – NIH3T3 host cells, beta-gal luminescence, confirmation (AID 2044).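 Also: intracellular parasites grown in NIH/3T3 mouse fibroblasts as host cells; luminescent beta-galactosidase reporter signal from transgenic T. cruzi replicating inside host cells; inhibitors lower the luminescence signal.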 It counts as functional, cell-based.
Assay [3] addresses T1, Corticotropin-releasing factor receptor 2/Corticotropin-releasing factor-binding protein (Homo sapiens, UniProt P24387+Q13324).
T1 sequence (Q13324 whole entry): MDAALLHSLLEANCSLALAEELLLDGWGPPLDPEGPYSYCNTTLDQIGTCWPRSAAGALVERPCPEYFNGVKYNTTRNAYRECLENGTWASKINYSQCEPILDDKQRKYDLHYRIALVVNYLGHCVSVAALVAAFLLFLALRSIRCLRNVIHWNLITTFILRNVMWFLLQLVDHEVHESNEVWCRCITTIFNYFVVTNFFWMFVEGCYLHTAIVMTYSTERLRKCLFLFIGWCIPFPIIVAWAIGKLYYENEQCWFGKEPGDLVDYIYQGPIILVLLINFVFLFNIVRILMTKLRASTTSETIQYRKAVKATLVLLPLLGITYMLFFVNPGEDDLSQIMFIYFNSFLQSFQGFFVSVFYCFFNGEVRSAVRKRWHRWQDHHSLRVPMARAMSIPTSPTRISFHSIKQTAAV
T1 sequence (P24387 whole entry): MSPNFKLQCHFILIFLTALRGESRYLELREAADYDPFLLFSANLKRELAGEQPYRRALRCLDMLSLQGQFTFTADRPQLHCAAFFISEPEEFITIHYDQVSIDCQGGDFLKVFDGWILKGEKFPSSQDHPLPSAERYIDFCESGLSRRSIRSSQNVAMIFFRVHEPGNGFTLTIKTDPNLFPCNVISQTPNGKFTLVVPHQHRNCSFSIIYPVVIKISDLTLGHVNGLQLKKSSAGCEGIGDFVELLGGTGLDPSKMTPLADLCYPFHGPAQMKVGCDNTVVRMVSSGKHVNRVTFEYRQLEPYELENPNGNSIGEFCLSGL
The experiment in a line: activators of CRF receptor 2 with binding protein – uHTS hits, confirmation (AID 602473). The class given is functional. To be noted: read-out: EC50_Mean.

The target in a further assay is T2, Cytochrome P450 1A2 (Homo sapiens, UniProt P05177).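 Also: PubChem cytochrome P450 panel assay, CYP1A2 panel member.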
T2 sequence (P05177 whole entry): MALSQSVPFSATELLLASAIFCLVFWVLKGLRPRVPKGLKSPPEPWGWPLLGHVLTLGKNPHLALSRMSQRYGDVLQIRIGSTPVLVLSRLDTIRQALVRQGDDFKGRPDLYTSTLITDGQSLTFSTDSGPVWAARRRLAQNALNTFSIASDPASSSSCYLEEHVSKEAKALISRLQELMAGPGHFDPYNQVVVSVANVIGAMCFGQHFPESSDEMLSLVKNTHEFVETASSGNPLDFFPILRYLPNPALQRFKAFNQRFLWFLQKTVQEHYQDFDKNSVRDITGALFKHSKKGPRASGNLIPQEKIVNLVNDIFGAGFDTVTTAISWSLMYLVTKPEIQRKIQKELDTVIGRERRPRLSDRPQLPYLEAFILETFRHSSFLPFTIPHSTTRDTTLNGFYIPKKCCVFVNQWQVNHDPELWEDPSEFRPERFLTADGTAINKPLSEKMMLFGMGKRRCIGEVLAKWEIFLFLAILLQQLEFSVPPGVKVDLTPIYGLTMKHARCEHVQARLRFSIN

Several values for one entry are separate records, joined by “and”; a condition that tells them apart may be missing. Equal values may be shown once. Activity calls are given as the source filed them.

This passage reports AC50 and EC50 results from ChEMBL document CHEMBL1201862, “PubChem BioAssay data set” (2004).

Sequence of Cytochrome P450 2C9 (P11712 whole entry): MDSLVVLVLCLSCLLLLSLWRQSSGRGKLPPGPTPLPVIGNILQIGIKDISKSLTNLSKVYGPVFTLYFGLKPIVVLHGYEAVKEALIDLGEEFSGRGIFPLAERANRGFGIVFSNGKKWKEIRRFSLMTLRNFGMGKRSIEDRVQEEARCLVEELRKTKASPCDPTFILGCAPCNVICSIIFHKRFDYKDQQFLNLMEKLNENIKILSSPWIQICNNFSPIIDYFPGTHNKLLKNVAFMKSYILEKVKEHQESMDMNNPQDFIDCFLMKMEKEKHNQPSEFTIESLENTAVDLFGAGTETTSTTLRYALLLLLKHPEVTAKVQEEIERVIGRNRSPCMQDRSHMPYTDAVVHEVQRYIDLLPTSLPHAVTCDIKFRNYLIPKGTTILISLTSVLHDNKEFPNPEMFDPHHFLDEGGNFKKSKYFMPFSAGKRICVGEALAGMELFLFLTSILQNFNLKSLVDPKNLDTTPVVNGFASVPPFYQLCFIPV
Sequence of Cytochrome P450 3A4 (P08684 whole entry): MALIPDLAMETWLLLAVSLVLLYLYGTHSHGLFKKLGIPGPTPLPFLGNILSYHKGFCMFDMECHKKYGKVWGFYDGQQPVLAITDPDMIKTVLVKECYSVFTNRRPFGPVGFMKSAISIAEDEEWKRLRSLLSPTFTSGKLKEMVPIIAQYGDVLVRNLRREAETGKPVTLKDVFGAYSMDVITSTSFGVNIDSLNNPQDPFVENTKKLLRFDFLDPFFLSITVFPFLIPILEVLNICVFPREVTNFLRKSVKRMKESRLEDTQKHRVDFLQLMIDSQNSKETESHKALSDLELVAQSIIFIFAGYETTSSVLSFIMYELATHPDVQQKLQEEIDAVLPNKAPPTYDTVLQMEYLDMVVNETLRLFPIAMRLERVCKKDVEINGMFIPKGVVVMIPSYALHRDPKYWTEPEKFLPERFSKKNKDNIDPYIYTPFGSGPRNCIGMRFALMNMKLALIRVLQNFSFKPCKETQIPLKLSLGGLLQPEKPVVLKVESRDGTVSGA

By AC50 is commonly meant the midpoint of the concentration-response curve, whichever way the signal moves. For `O=C(c1ccc2c(=O)n(CC3CCCO3)c(=S)[nH]c2c1)N1CCN(c2ccccc2)CC1` (stereo not drawn), the results for the AC50 at Cytochrome P450 2C9 and on Cytochrome P450 3A4 were 7.94 µM (inconclusive) and 7.08 µM (inconclusive), respectively.
`C/C(=N/NC(=O)c1ccc(C)s1)c1cccc(NC(=O)COc2ccc(Cl)cc2C)c1`: on Cytochrome P450 3A4, the AC50 was 1.12 µM (inconclusive).
With `CS(=O)(=O)N1CC(C(=O)NC2CC2)Oc2ccc(Cl)cc21` (stereo not drawn), the concentration at half-maximal activity (AC50) on Cytochrome P450 2C9 was 10 µM (inconclusive); on Cytochrome P450 3A4, 25.1 µM (inconclusive).
For the compound `Cc1ccc2nc(NC(=O)C3CCN(S(=O)(=O)c4cc([N+](=O)[O-])ccc4Cl)CC3)sc2c1`, the EC50 is > 60 µM (not active) in assay [1] and 0.528 µM (active) in assay [2].
As for `Cc1ccc(S(=O)(=O)O[C@H]2C[C@@H](C(C)(C)C)CC[C@@H]2c2ccccc2)cc1`, the AC50 on Cytochrome P450 3A4 was 2 µM (inconclusive).
On to `CC1(C)CSC(NCc2ccccc2)=N1`, for which the EC50 in assay [3] was 2.84 µM (active).
Consider `CCc1ccc(OCCOCC(O)CNC(C)(C)C)cc1` (stereo not drawn), for which the EC50 in assay [3] is > 53 µM (inactive).
On to `CC(C(=O)Nc1ccccc1C(=O)O)n1c(C(F)(F)F)nc2ccccc21` (stereo not drawn), for which the EC50 was > 60 µM (inconclusive) in assay [1] and 9.95 µM (active) in assay [2].
For the compound `CCOc1cc(-c2nc(-c3cc([N+](=O)[O-])ccc3C)c(-c3ccccc3)[nH]2)ccc1O`, the values for the EC50 in assay [1] and in assay [2] were > 60 µM (inconclusive) and 2.7 µM (active), respectively.
Take `O=C1S/C(=C/c2ccc(N3CCOCC3)o2)C(=O)N1Cc1ccc(F)cc1`: the AC50 on Cytochrome P450 3A4 is 7.94 µM (inconclusive). Further, the EC50 in assay [3] is 5.79 µM (active).
Regarding `Cc1ccc(/C=N\NC(=O)c2ccc(Cn3cc(Br)c([N+](=O)[O-])n3)o2)o1`, the results for the EC50 in assay [1] and in assay [2] were > 60 µM (not active) and 0.878 µM (active), respectively.
In the case of `O=C(Nc1ccccc1)Nc1ccccc1-n1ccnc1`, the EC50 is > 60 µM (not active) in assay [1] and 2.53 µM (active) in assay [2].
As to `N[C@H](Cc1ccc(N(CCCl)CCCl)cc1)C(=O)O`, the AC50 at Cytochrome P450 1A2 is 15.8 µM (inconclusive).
As for `CCN(CC)P(=O)(Nc1ccc(SC(F)F)cc1)c1ccc(N(C)C)cc1NC(=O)c1ccco1` (stereo not drawn), the EC50 in assay [1] was > 60 µM (not active); in assay [2] it was 1.99 µM (active).
`Cc1noc(N)c1C(=O)Nc1ccc(F)cc1`: on Cytochrome P450 2C9, the AC50 was 3.98 µM (inconclusive).
As for `O=C(Nc1cccnc1Cl)C1c2ccccc2Oc2ccccc21`, the half-maximal activity concentration (AC50) at Cytochrome P450 3A4 is 14.1 µM (inconclusive); at Cytochrome P450 1A2, 3.16 µM (inconclusive).
For `COc1ccc(OC)c(Nc2nc(-c3sc(NC(=O)c4ccccc4)nc3C)cs2)c1`, the AC50 at Cytochrome P450 3A4 was 28.2 µM (inconclusive).
As to `CC(C)N(CCNC(=O)c1nn(Cc2ccccc2)c(=O)c2ccccc12)C(C)C`, the EC50 in assay [1] was > 60 µM (not active); in assay [2], 1.46 µM (active).
Take `O=C(NCCCN1CCc2ccccc2C1)C1CCN(S(=O)(=O)N2CCCC2)CC1`: the AC50 on Cytochrome P450 3A4 is 20 µM (inconclusive).
Take `Cc1ccc(/N=N\c2ccc(N)cc2C)c(S(N)(=O)=O)c1`: the half-maximal activity concentration (AC50) at Cytochrome P450 3A4 is 3.98 µM (inconclusive).
Take `O[C@H](CCCN1CCN(c2ncc(F)cn2)CC1)c1ccc(F)cc1`: the AC50 was 12.6 µM (inconclusive) at Cytochrome P450 2C9 and 31.6 µM (inconclusive) at Cytochrome P450 1A2.
With `Cc1noc(C)c1-c1ccc2ncnc(NC3CCNCC3)c2c1`, on Cytochrome P450 1A2, the AC50 was 31.6 µM (inconclusive).
In the case of `Cn1cnc([N+](=O)[O-])c1Sc1nc(N)nc2c1ncn2Cc1ccccc1`, on Cytochrome P450 1A2, the half-maximal activity concentration (AC50) was 3.16 µM (inconclusive).
Still for that read-out and setting: the result for `Cc1cnc(CNc2ncncc2-c2cccc(NS(C)(=O)=O)c2)cn1` reads 31.6 µM (inconclusive); that for `CCN(CC)c1ccc(N2C(=O)/C(=C\c3cccnc3)SC2=S)cc1`, 1.41 µM (inconclusive).
As for `C=CCn1c(NCc2ccccc2)nc2ccccc21`, at Cytochrome P450 3A4, the AC50 was 25.1 µM (inconclusive).
In the case of `N#Cc1cc(C(=O)c2ccccc2O)cn(-c2ccc(Cl)cc2)c1=O`, the EC50 in assay [3] is > 53 µM (inactive).
In the case of `O=C(c1cc(-c2ccccc2)nc2ccccc12)N1CCC2(CC1)OCCO2`, at Cytochrome P450 3A4, the AC50 is 25.1 µM (inconclusive).
Take `CCCCN1C(=O)NC(=O)/C(=C(/C)NCCCN(CC)CC)C1=O`: the EC50 in assay [1] is > 60 µM (not active); in assay [2] it was 1.66 µM (active).
On to `COc1ccc(C(=O)c2ccc(N3CCN(C(=O)c4ccc(F)cc4)CC3)c(F)c2)cc1Br`, for which the values for the EC50 in assay [1] and in assay [2] were 8.95 µM (active) and 2.37 µM (active), respectively.
In the case of `COc1ccc2c3c([nH]c2c1)C(C)=NCC3`, the AC50 at Cytochrome P450 3A4 is 2.51 µM (inconclusive).
With `S=C(Nc1ccc2c(c1)Cc1ccccc1-2)Nc1ccc2c(c1)Cc1ccccc1-2`, on Cytochrome P450 3A4, the AC50 was 3.98 µM (inconclusive).
Regarding `Cn1ncc(C#N)c1NC(=O)C1CC(c2ccc(Cl)cc2)=NO1` (stereo not drawn), the AC50 on Cytochrome P450 2C9 is 12.6 µM (inconclusive); at Cytochrome P450 3A4 it was 20 µM (inconclusive); at Cytochrome P450 1A2 it was 31.6 µM (inconclusive).
For `Cc1cccc(OCCCCCn2ccnc2)c1`, the EC50 in assay [1] was > 30 µM (not active); in assay [2] it was 0.443 µM (active).
For the compound `COc1ccccc1-c1cncnc1N1CCN(C)CC1`, the AC50 on Cytochrome P450 1A2 was 12.6 µM (inconclusive).
Regarding `CC(C)CN1CCC2(CC1)CCN(C(=O)c1cc(C(F)(F)F)cc(C(F)(F)F)c1)CC2`, the AC50 at Cytochrome P450 2C9 is 12.6 µM (inconclusive).
As for `CCOC(=O)CC(NC(=O)c1ccc(C)cc1)c1ccc(C)cc1` (stereo not drawn), the AC50 on Cytochrome P450 3A4 was 25.1 µM (inconclusive).
On to `CC(C)N1CCc2c(sc(NC(=O)CCc3ccccc3)c2C(N)=O)C1`, for which, in assay [3], the EC50 was > 53 µM (inactive).
For the compound `CC(C)C[C@H]1CN=C(Nc2ccccc2)N1CCc1cccc(F)c1`, the EC50 in assay [3] was 6.43 µM (active).
Regarding `C=CCSc1nnc(NC(=O)COc2ccc3ccccc3c2)s1`, the concentration at half-maximal activity (AC50) on Cytochrome P450 2C9 was 8.91 µM (inconclusive).
With `CCOC(=O)N1CCN(C(=O)CC(C(=O)N2CCc3ccccc32)n2ccnc2)CC1` (stereo not drawn), the results for the EC50 in assay [1] and in assay [2] were > 60 µM (not active) and 1.82 µM (active), respectively.
As for `CC1CC(C)CN(CCCNC(=O)C2CCCN(c3nnc(N4CCCC4=O)s3)C2)C1` (stereo not drawn), the AC50 on Cytochrome P450 3A4 was 28.2 µM (inconclusive).
Consider `CC(C)(C)C(=O)Nc1sc2c(c1C#N)CCN(Cc1ccccc1)C2`, for which, in assay [3], the EC50 was 10.2 µM (active).
In the case of `CCN1CCc2c(sc(NC(=S)NC(=O)c3ccccc3)c2C#N)C1`, the AC50 was 20 µM (inconclusive) on Cytochrome P450 3A4 and 14.1 µM (inconclusive) on Cytochrome P450 1A2.
As for `O=c1c(-c2ccccc2)nc2cnc(Oc3ccccc3)nc2n1Cc1cccs1`, the half-maximal activity concentration (AC50) was 3.16 µM (inconclusive) on Cytochrome P450 2C9 and 2.51 µM (inconclusive) on Cytochrome P450 1A2.
With `CC(C)(C)NS(=O)(=O)c1ccc(NS(=O)(=O)c2ccc(F)cc2)cc1`, at Cytochrome P450 3A4, the AC50 is 15.8 µM (inconclusive).
Turning to `COc1ccccc1CN1CC[C@@]2(CCCN(C(=O)c3ccco3)C2)C1`, on Cytochrome P450 1A2, the AC50 was 39.8 µM (inconclusive).
On to `Cc1onc(C(=O)/C=C/N(C)C)c1C(=O)Nc1nccs1`, for which the half-maximal activity concentration (AC50) on Cytochrome P450 1A2 is 0.631 µM (inconclusive).
Turning to `N#Cc1ccc(CN2CCCC3(CCN(C(=O)Oc4ccccc4)CC3)C2)cc1`, the AC50 on Cytochrome P450 2C9 is 39.8 µM (inconclusive); at Cytochrome P450 3A4 it was 15.8 µM (inconclusive).
On to `N[C@H](CCCP(=O)(O)O)C(=O)O`, for which, at Cytochrome P450 1A2, the AC50 is 25.1 µM (inconclusive) and 31.6 µM (inconclusive).
As for `O=C(O)CCC(=O)N1CCN(c2ccccn2)CC1`, the AC50 at Cytochrome P450 2C9 is 0.891 µM (inconclusive); on Cytochrome P450 3A4, 3.55 µM (inconclusive).
In the case of `COc1ccc(C(=O)NC2CCN(C(S)=Nc3cccc(C)c3)CC2)cc1`, at Cytochrome P450 2C9, the AC50 is 25.1 µM (inconclusive).
With `Cc1ccccc1-c1nc(NC2CCNCC2)c2ccccc2n1`, the AC50 on Cytochrome P450 1A2 was 20 µM (inconclusive).
As for `COc1cccc(-c2cncnc2NCCN2CCOCC2)c1`, the figures for the half-maximal activity concentration (AC50) on Cytochrome P450 3A4 and on Cytochrome P450 1A2 were 3.16 µM (inconclusive) and 15.8 µM (inconclusive), respectively.
In the case of `NNS(=O)(=O)c1cc(C(=O)O)cc(C(=O)O)c1`, the AC50 at Cytochrome P450 1A2 is 0.001 µM (inconclusive).
